Converted amounts (≈) assume the structure as drawn. “And” between values parts separate entries of the source, which are not always exact repeats. Equal entries are not always repeated. Where two headings read alike, the source gives them in different places.
Key:
human TK1 = molecular target: T1, human TK1 (Homo sapiens, UniProt P04183); assay: Thymidine kinase inhibition with [3H]-dT as substrate; type: biochemical; conditions: 10 μM tritium labelled thymidine
T1 construct: made in house
T1 sequence (P04183 1-234): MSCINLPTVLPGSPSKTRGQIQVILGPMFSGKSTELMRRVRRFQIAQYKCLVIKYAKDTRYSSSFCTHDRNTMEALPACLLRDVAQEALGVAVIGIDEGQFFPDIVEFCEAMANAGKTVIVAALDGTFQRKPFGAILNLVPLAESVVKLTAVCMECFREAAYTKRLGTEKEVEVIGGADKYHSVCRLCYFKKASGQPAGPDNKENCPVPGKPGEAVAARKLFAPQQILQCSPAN
Procedure: (§1) Thymidine kinase assay was performed using tritium labelled thymidine ([^3H]-dT) as substrate and various concentrations of the inhibitors essentially as previously described to determine the IC50 values of TFT and 5FdU.

human TK2 = molecular target: T2, human TK2 (Homo sapiens, UniProt O00142); assay: as above; type: biochemical; conditions: 10 μM tritium labelled thymidine
T2 construct: made in house
T2 sequence (O00142 34-265): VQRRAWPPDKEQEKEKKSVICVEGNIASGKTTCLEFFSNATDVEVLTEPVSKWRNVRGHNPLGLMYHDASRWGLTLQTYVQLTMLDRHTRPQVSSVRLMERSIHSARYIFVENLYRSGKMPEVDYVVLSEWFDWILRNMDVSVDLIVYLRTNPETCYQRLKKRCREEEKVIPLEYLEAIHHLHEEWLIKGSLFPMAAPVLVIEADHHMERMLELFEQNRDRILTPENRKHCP
Procedure: as §1

Ureaplasma TK = molecular target: T3, Ureaplasma TK (Ureaplasma parvum serovar 3, UniProt Q9PPP5); assay: as above; type: biochemical; conditions: 10 μM tritium labelled thymidine
T3 construct: made in house
T3 sequence (Q9PPP5 1-223): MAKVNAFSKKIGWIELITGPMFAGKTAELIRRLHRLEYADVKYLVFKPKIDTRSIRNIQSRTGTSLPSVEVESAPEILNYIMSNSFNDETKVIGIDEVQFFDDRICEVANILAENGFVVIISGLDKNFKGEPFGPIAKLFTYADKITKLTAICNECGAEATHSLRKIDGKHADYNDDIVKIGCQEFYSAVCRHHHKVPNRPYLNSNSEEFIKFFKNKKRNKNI
Procedure: as §1

Mpn wild type cells = assay: Uptake and metabolism of tritium labelled natural nucleoside and nucleobases in the presence of analogs; type: cell-based, Mycoplasma pneumoniae; conditions: for [3H]-Ade Total uptake / [3H]-Gua Total uptake / [3H]-Hx Total uptake / [3H]-Ura Total uptake / [3H]-dT Total uptake / [3H]-Ade Incorporation / [3H]-Gua Incorporation / [3H]-Hx Incorporation / [3H]-Ura Incorporation / [3H]-dT Incorporation: 10 μM analog, 70 hours; for [3H]-Ade Total uptake / [3H]-Gua Total uptake / [3H]-Hx Total uptake / [3H]-Ura Total uptake / [3H]-dT Total uptake: 37°C, radioactivity in cells / total added; for [3H]-Ade Incorporation / [3H]-Gua Incorporation / [3H]-Hx Incorporation / [3H]-Ura Incorporation / [3H]-dT Incorporation: acid insoluble fraction / total in cells
Procedure: The cells were harvested and analyzed essentially as described. Analogs used were dipyridamole, 6-thioguanine (6-TG), trifluorothymidine (TFT), gemcitabine (dFdC) and 5-fluorodeoxyuridine (5FdU). Total uptake is the percent of radioactivity recovered in the cells divided by total radioactivity added to the growth medium. Percent of acid insoluble (radioactivity found in DNA and RNA) was also calculated. These experiments were done more than three times and data are given as mean ± SD.

[1] = test system: M. pneumoniae wild type (laboratory strain M129); assay: Mpn growth inhibition in 96-well plates (growth index A450/A560), wild type strain; type: cell-based, Mycoplasma pneumoniae; conditions: for MIC: Mycoplasmoides pneumoniae
Procedure: (§2) A series dilution of each compound in Mycoplasma growth medium was added to Mpn cultures in 96-well plates. The plates were sealed and incubated at 37°C. Mpn growth was monitored by using growth index value e.g. the ratio of absorbance at 450 nm and 560 nm of the culture medium. Thirty nucleoside and nucleobase analogs and a nucleoside transporter inhibitor were included, and two Mpn strains, wild type and a thyA mutant (lacking TS activity), were used.
(§3) Nucleoside and nucleobase analogs were dissolved in dimethyl sulfoxide (DMSO) as stock solutions and diluted with Mpn culture medium to the desired concentration immediately prior to use.
(§4) Mpn laboratory strain M129 wild type and a thyA mutant strain [31] were used in this study. Mpn was cultured at 37°C in a CO2 incubator using 75 cm^2 tissue culture flasks containing 50 ml Hayflick’s medium, and harvested at day 4 when the medium color change was observed. The cells were harvested and the pellet was resuspended in 6 ml fresh medium and the cfu/ml was determined by serial dilution (10-fold) and plating on broth agar plate. Colonies was counted and cfu/ml was calculated.
(§5) Inhibition studies were performed in 96-well plates containing 200 μl Mpn culture (approximately 10^6 cfu ml^-1) in Hayflick’s medium and 200 μl each compound in series dilutions (2-fold) with the growth medium, with three to four replicas. The plates were sealed with clear adhesive sheets and incubated at 37°C incubator. Absorbance ratio at 450 nm and 560 nm was used as Mpn growth index, which was measured daily, and by visual detection for at least 8 days, as previously described. […] The MICs (minimal inhibitory concentration required to inhibit Mpn growth to 90%) were determined as the lowest concentration at which the growth index was ≈ 10% of the control values (at the time when the control culture medium color turned yellow), essentially as described.

TK in Mpn extracts = molecular target: T4, TK in Mpn extracts (Mycoplasmoides pneumoniae, UniProt P75070); assay: Inhibition of dT phosphorylation in Mpn protein extracts; type: biochemical
T4 construct: endogenous in cells; host or cells: Mycoplasma pneumoniae M129 total protein extract
T4 sequence (P75070 1-191): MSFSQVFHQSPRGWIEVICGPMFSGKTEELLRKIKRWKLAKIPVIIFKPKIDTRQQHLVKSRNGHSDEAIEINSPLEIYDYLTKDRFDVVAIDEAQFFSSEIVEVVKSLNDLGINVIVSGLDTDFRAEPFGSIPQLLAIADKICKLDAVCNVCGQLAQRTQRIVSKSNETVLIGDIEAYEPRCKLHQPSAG
Procedure: Both TFT and 5FdU are substrates of Mycoplasma and human TKs, as described above and earlier studies.
as §1

[2] = test system: M. pneumoniae thyA mutant (lacking TS activity); assay: microbe, parasite or virus in culture; type: cell-based, Mycoplasma pneumoniae; conditions: Mycoplasmoides pneumoniae, read-out: thyA mutant MIC
Procedure: as §2, §3, §4, §5

human HPRT = molecular target: T5, human HPRT (Homo sapiens, UniProt P00492); assay: HPRT inhibition, DE-81 filter paper assay; type: biochemical
T5 construct: made in house
T5 sequence (P00492 1-218): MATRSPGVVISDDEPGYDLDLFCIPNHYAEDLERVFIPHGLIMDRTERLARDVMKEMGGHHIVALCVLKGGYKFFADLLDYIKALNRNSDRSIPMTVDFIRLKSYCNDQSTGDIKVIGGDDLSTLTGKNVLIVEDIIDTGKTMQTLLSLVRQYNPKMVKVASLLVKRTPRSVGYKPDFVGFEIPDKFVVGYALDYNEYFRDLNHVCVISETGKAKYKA
Procedure: (§6) The reaction was initiated by addition of the enzyme, and at 0, 5, 10, and 15 min intervals, 10 μl reaction mixture was withdrawn and spotted onto the DE81 filter paper and dried. The unreacted substrate was washed and the products were eluted and counted in a liquid scintillation counter. With [^3H]-Gua as substrate the reaction (in a total of 25 μl) was initiated by addition of the enzyme (10 μl), incubated at 37°C for 2 min, stopped by addition of 1 M HCl (10 μl), and placed immediately on ice. After neutralization, 15 μl of the mixture was spotted onto the DE81-filter paper. The filters were then washed, and the products were eluted and counted by liquid scintillation.

Mpn HPRT [3] = molecular target: T6, Mpn HPRT (Mycoplasmoides pneumoniae, UniProt P75119); assay: biochemical
T6 sequence (P75119 1-175): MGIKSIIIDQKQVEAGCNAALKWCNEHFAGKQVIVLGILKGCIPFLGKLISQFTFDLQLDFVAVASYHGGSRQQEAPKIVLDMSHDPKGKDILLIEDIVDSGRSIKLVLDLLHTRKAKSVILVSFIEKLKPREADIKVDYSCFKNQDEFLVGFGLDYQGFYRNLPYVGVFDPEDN
Procedure: as §6

Mpn HPRT [4] = molecular target: T6, Mpn HPRT; conditions: as substrate of Mpn HPRT
Procedure: Data are from at least three independent measurements and are presented as mean ± standard deviation (SD).
as §6

[5] = substrate: O=c1[nH]cnc2nc[nH]c12; assay: purified protein, by the assay type; conditions: other: as substrate of Mpn HPRT, Michaelis-Menten; pH 7.5; 37.0 °C
[6] = IC50 Human HPRT, substrate hypoxanthine, 10 μM [3H]-hypoxanthine
[7] = minimal concentration producing 90% inhibition, wild type Mpn, read-out: Wild type MIC
[8] = 10 μM [3H]-guanine, read-out: IC50 Human HPRT, substrate guanine
[9] = substrate guanine, 10 μM [3H]-guanine
[10] = substrate hypoxanthine, 10 μM [3H]-hypoxanthine
[11] = strain not specified, 90% growth inhibition

## O=c1[nH]c(=O)n([C@H]2C[C@H](O)[C@@H](CO)O2)cc1F [5-fluorodeoxyuridine (5FdU), 5-fluorodeoxyuridine]
Human TK1
  IC50: 75.9 ± 2.6 µM
Human TK2
  IC50: 158 ± 2.7 µM
Ureaplasma TK
  IC50: 1000 ± 13.3 µM
Mpn wild type cells; 10 μM analog versus control
  Stimulation of [3H]-dT uptake: 2 fold
Mpn wild type cells
  [3H]-Ade Total uptake: 0.36±0.1%
  [3H]-Gua Total uptake: 0.16±0.03%
  [3H]-Hx Total uptake: 0.006± 0.001%
  [3H]-Ura Total uptake: 0.087±0.003%
  [3H]-dT Total uptake: 14.7±0.2%
  [3H]-Ade Incorporation: 42±2%
  [3H]-Gua Incorporation: 87±3%
  [3H]-Hx Incorporation: 76±4%
  [3H]-Ura Incorporation: 19±7%
  [3H]-dT Incorporation: 96.0±0.5%
[1]; read-out: Wild type MIC
  MIC: 7.8 µg/mL (≈ 31.7 µM)
TK in Mpn extracts
  IC50: 47.9 ± 1.2 µM
[2]
  MIC: 15.6 µg/mL (≈ 63.4 µM)

## Cn1c(=O)c2c(ncn2C)n(C)c1=O [Caffeine]
Human HPRT; [6]
  IC50: 2510 ± 156 µM
[1]; [7]
  MIC: > 500 µg/mL
[2]
  MIC: > 500 µg/mL

## Sc1ncnc2nc[nH]c12 [6-mercaptopurine (6-MP), 6-mercaptopurine]
Human HPRT; [8]
  IC50: 25.1 ± 3 µM
Human HPRT; [6]
  IC50: 22.5 ± 3.6 µM
[1]; read-out: Wild type MIC
  MIC: > 500 µg/mL
[1]; strain not specified
  Inhibition of Mpn growth (in words): did not inhibit Mpn growth
Mpn HPRT [3]; [9]
  IC50: 282 ± 21 µM
Mpn HPRT [3]; [10]
  IC50: 89.7 ± 14.5 µM
[2]
  MIC: > 500 µg/mL

## Nc1nc2nc[nH]c2c(=O)[nH]1 [Gua, guanine]
Mpn HPRT [4]
  Hill coefficient: 3.5
  Vmax: 2.7 ± 0.1 µmol/min/mg
Mpn HPRT [4]; Hill equation
  S0.5: 107.6 ± 6.2 µM

## Cn1c(=O)c2[nH]cnc2n(C)c1=O [Theophylline]
Human HPRT
  IC50: 1580 ± 134 µM
[1]; read-out: Wild type MIC
  MIC: > 500 µg/mL
Mpn HPRT [3]; [10]
  IC50: > 4000 µM
[2]
  MIC: > 500 µg/mL

## Nc1nc2nc[nH]c2c(=S)[nH]1 [6-thioguanine (6-TG), 6-thioguanine]
Mpn wild type cells
  [3H]-Ade Total uptake: 0.66±0.1%
  [3H]-Gua Total uptake: 0.080±0.002%
  [3H]-Hx Total uptake: 0.005 ± 0.0004%
  [3H]-Ura Total uptake: 0.21±0.003%
  [3H]-dT Total uptake: 7.9±0.6%
  [3H]-Ade Incorporation: 46±3%
  [3H]-Gua Incorporation: 67±3%
  [3H]-Hx Incorporation: 43±6%
  [3H]-Ura Incorporation: 39±8%
  [3H]-dT Incorporation: 97.4±0.7%
Human HPRT; [8]
  IC50: 39.8 ± 4 µM
Human HPRT; [6]
  IC50: 20.5 ± 6.5 µM
[1]; read-out: Wild type MIC
  MIC: 0.2 µg/mL (≈ 1.2 µM)
[1]; [11]
  MIC (Mpn growth): 0.20 µg/mL (≈ 1.2 µM)
Mpn HPRT [3]; [9]
  IC50: 3.2 µM and 3.16 µM
Mpn HPRT [3]; [10]
  IC50: 3.5 ± 0.5 µM
[2]
  MIC: 0.2 µg/mL (≈ 1.2 µM)

## OCCN(CCO)c1nc(N2CCCCC2)c2nc(N(CCO)CCO)nc(N3CCCCC3)c2n1 [Dipyridamole]
Mpn wild type cells
  [3H]-Ade Total uptake: 0.67±0.1%
  [3H]-Gua Total uptake: 0.09±0.002%
  [3H]-Hx Total uptake: 0.008± 0.001%
  [3H]-Ura Total uptake: 0.20±0.003%
  [3H]-dT Total uptake: 7.2±1.1%
  [3H]-Ade Incorporation: 47±1%
  [3H]-Gua Incorporation: 56±6%
  [3H]-Hx Incorporation: 44±3%
  [3H]-Ura Incorporation: 38±6%
  [3H]-dT Incorporation: 97.0±1.3%
[1]; read-out: Wild type MIC
  MIC: 1.9 µg/mL (≈ 3.77 µM)
[1]; [11]
  MIC (Mpn growth): approximately 2 μg ml^-1
[2]
  MIC: 1.9 µg/mL (≈ 3.77 µM)

## Nc1ccn([C@@H]2O[C@H](CO)[C@@H](O)C2(F)F)c(=O)n1 [Gemcitabine (dFdC), Gemcitabine]
Mpn wild type cells
  [3H]-Ade Total uptake: 0.41±0.08%
  [3H]-Gua Total uptake: 0.10±0.02%
  [3H]-Hx Total uptake: 0.009±0.0002%
  [3H]-Ura Total uptake: 0.12±0.001%
  [3H]-dT Total uptake: 5.2±0.4%
  [3H]-Ade Incorporation: 39±8%
  [3H]-Gua Incorporation: 90±6%
  [3H]-Hx Incorporation: 67±7%
  [3H]-Ura Incorporation: 26±6%
  [3H]-dT Incorporation: 96.7±1.1%
[1]; read-out: MIC (Mpn growth), strain not specified, 90% growth inhibition
  MIC: ~2.5 µg/mL (≈ 9.5 µM)
[1]; read-out: Wild type MIC
  MIC: 2.4 µg/mL (≈ 9.12 µM)
[1]; [11]
  MIC (Mpn growth): approximately 2 μg ml^-1
[2]
  MIC: 2.4 µg/mL (≈ 9.12 µM)

## Nc1ncnc2c1ncn2[C@@H]1O[C@H](CO)[C@@H](O)[C@@H]1O [Arabinosyl adenine]
[1]; [7]
  MIC: > 500 µg/mL
[2]
  MIC: > 500 µg/mL

B1: Mpn HPRT (Mycoplasmoides pneumoniae M129) (protein)
chain: MGIKSIIIDQKQVEAGCNAALKWCNEHFAGKQVIVLGILKGCIPFLGKLISQFTFDLQLDFVAVASYHGGSRQQEAPKIVLDMSHDPKGKDILLIEDIVDSGRSIKLVLDLLHTRKAKSVILVSFIEKLKPREADIKVDYSCFKNQDEFLVGFGLDYQGFYRNLPYVGVFDPEDN
[5]
  Km: 100.1 ± 6.5 µM

From PMC3750255, “Inhibition of Mycoplasma pneumoniae growth by FDA-approved anticancer and antiviral nucleoside and nucleobase analogs” (BMC Microbiology, 2013)
